Like-named read-outs stand apart in the source and are kept apart here.
Key:
HCMV NO protease = target: T1, HCMV NO protease (Human cytomegalovirus, UniProt P16753); experiment: HCMV NO Protease Assay (fluorogenic substrate cleavage); type: biochemical; conditions: HCMV NO protease 100 nM, substrate 5 μM, pH 8, 2.5 h at 30°
T1 construct: HCMV NO protease
Description: This particular assay determines the ability of a test compound to inhibit the activity (IC50) of HCMV protease. More specifically, in the assay described herein, the inhibitory activity of the test compound is evaluated on the basis of its ability to interfere with the HCMV NO protease cleavage of a fluorogenic peptide substrate which in turn is based on the maturation cleavage site of the enzyme.
1. HCMV NO Protease Assay
Material & Methods: Fluorescence measurements were recorded on a Perkin-Elmer LS-50B spectrofluorimeter equipped with a plate reader accessory. UV measurements were recorded on a Thermomax® microplate reader from Molecular Devices Corporation, Menlo Park, Calif., USA.
HCMV NO protease was assayed with an internally quenched fluorogenic substrate based on the maturation cleavage site (Abz-[…](3-NO2)R--OH, kcat /KM =260 M^-1 s^-1). The fluorescence increase upon cleavage of the Ala-Ser amide bond was monitored using excitation λ=312 nm (slit 2.5 nm) and emission λ=415 nm (slit 5 nm). A protocol adaptable to a 96-well plate format was designed for the determination of IC50 values of inhibitors.
After this period, enzymatic hydrolysis of the fluorogenic substrate in the absence of inhibitor led to about a 30% conversion. Quenching was not required before fluorescence measurement since the total scanning time by the plate reader accessory was brief relative to the duration of the reaction. The aqueous incubation buffer contained 50 mM tris(hydroxymethyl)aminomethane.HCl pH 8, 0.5M Na2 SO4, 50 mM NaCl, 0.1 mM EDTA, 1 mM tris(2-carboxyethyl)phosphine.HCl, 3% v/v DMSO and 0.05% w/v casein. The final concentrations of HCMV NO protease (expressed in terms of total monomer concentration) and substrate were 100 nM and 5 μM respectively. IC50 values were obtained through fitting of the inhibition curve to a competitive inhibition model using SAS NLIN procedure. The mode of inhibition was determined by measurements of the initial rates (in cuvettes) at various substrate concentrations in the buffer as described above. The IC50 values listed in the following tables were obtained according to this assay.

[1] = system: HCMV (strain AD169, ATCC VR-538); experiment: Plaque Reduction Assay (PRA) in HCMV-infected Hs-68 cells; type: cell-based, human cytomegalovirus (HCMV)
Description: B. Plaque Reduction Assay (PRA):
Hs-68 cells (ATCC # CRL 1635) were seeded in 12-well plates at 83,000 cells/well in 1 mL of DMEM medium (Gibco Canada Inc.) supplemented with 10% fetal bovine serum (FBS, Gibco Canada Inc.). The plates were incubated for 3 days at 37° to allow the cells to reach 80-90% confluency prior to the assay.
The medium was removed from the cells by aspiration. The cells were then infected with approximately 50 PFU of HCMV (strain AD169, ATCC VR-538) in DMEM medium supplemented with 5% inactivated FBS (assay medium). (DMEM medium is commercially available and has been described by R. Dulbecco et al., Virology 1959, 8, 396.) The virus was allowed to adsorb to cells for 2 h at 37°. Following viral adsorption, the medium was removed from the wells by aspiration. The cells were then incubated with or without 1 mL of appropriate concentrations of test reagent in assay medium. Occasionally, test compounds were added 24 h post-infection. After 4 days of incubation at 37°, the medium was exchanged with fresh medium containing test compound and 4 days later the cells were fixed with 1% aqueous formaldehyde and stained with a 2% violet solution in 20% ethanol in water. Microscopic plaques were counted using a stereomicroscope. Drug effects were calculated as a percent reduction in the number of plaques in the presence of each drug concentration compared to the number observed in the absence of drug. Ganciclovir was used as a positive control in all experiments.

[2] = Cytotoxicity, tetrazolium salt (MTT) metabolic assay; type: cell-based; conditions: cytotoxic effects, read-out: TC50 (the source's name)
Description: Cytotoxic effects noted as TC50 in the following tables were determined according to the tetrazolium salt (MTT) metabolic assay, F. Denizot and F. Lang, J. Immun. Meth., 1986, 89, 271.

[3] = Human betaherpesvirus 5, Hs68, 192 h, plaque reduction, HCMV strain AD169, Hs-68 cells, 8 days, read-out: EC50
[4] = Human betaherpesvirus 5, AD169, Hs68, 192 h

T1 sequence (P16753 1-256): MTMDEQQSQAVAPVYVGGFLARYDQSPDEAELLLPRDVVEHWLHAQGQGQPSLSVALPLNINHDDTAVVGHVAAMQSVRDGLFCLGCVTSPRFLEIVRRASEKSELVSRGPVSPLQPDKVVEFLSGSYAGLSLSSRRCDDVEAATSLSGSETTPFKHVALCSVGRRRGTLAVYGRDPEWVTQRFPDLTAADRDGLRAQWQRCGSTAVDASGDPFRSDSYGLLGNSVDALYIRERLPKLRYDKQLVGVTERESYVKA

SMILES | IC50 (HCMV NO protease) [µM] | EC50 [1, 3] [µM] | CC50 [2] [µM] | EC50 [1, 4] [µM]
CC[C@@H](NC(=O)N1C(=O)C[C@@H]1CSc1nc2ccccc2s1)c1ccccc1 [Entry 106] | 3.3 | > 250 | > 250 | –
CN(Cc1ccc(C#N)cc1)C(=O)N1C(=O)C[C@@H]1CSc1ncccn1 [Entry 312] | 4.7 | 100 | > 250 | –
CC[C@@H](NC(=O)N1C(=O)C[C@@H]1CSc1ccncc1)c1ccccc1 [Entry 107] | 2 | 92 | > 233 | –
CC[C@@H](NC(=O)N1C(=O)[C@@H](C)[C@@H]1CSc1nccn1C)c1ccccc1 [Entry 116] | 1.9 | 130 | > 250 | –
CC[C@@H](NC(=O)N1C(=O)[C@@H](C)[C@@H]1CSc1nnnn1C)c1ccccc1 [Entry 119] | 1.4 | 80 | > 250 | –
CN(Cc1ccc2c(c1)OCO2)C(=O)N1C(=O)C[C@@H]1CSc1ncccn1 [Entry 317] | 9 | 140 | > 249 | –
CC[C@@H](NC(=O)N1C(=O)[C@@H](C)[C@@H]1CSC1CCCCC1)c1ccccc1 [Entry 114] | 3 | > 250 | > 250 | –
CC[C@@H](NC(=O)N1C(=O)C[C@@H]1CSc1ncccn1)c1ccccc1 [Entry 104, 2-oxo-4(R)-(pyrimidin-2-ylsulfanylmethyl)azetidine-1-carboxylic acid (1(R)-phenylpropyl)amide] | 2.8 | 120 | > 209 | –
CC[C@@H](NC(=O)N1C(=O)[C@@H](C)[C@@H]1CSc1nc(C)cc(C)n1)c1ccccc1 [Entry 126] | 2.8 | 25 | > 63 | –
CC[C@@H](NC(=O)N1C(=O)C[C@@H]1CSc1nccc(C)n1)c1ccccc1 [Entry 124] | 4 | > 250 | > 250 | –
COC(=O)c1ccc(CN(C)C(=O)N2C(=O)C[C@@H]2CSc2nccc(C)n2)cc1 [Entry 307] | 3.5 | 105 | > 250 | –
CC[C@@H](NC(=O)N1C(=O)C[C@@H]1[C@H](C)Sc1ncccn1)c1ccccc1 [Entry 208, 2-oxo-4(R)-[1(S)-(pyrimidin-2-ylsulfanyl)ethyl]-azetidine-1-carboxylic acid (1(R)-phenylpropyl)amide] | 4.5 | > 250 | > 250 | –
CC[C@@H](NC(=O)N1C(=O)C[C@@H]1CSC)c1ccccc1 [Entry 127, 4(R)-(methylsulfanyl)methyl-2-oxoazetidine-1-carboxylic acid (1(R)-phenylpropyl)amide] | 3.8 | > 250 | > 250 | –
CC[C@@H](NC(=O)N1C(=O)C[C@@H]1COC(=O)Nc1ccccc1)c1ccccc1 [Entry 131] | 0.4 | – | > 32 | 20
CC[C@@H](NC(=O)N1C(=O)C[C@@H]1CSc1nc(C)cc(C)n1)c1ccccc1 [Entry 105] | 4.6 | 88 | > 250 | –
CC[C@@H](NC(=O)N1C(=O)C[C@@H]1CSc1ccccc1)c1ccccc1 [Entry 129] | 2.5 | > 250 | > 250 | –

SMILES | IC50 (HCMV NO protease) [µM] | EC50 [1, 3] [µM] | CC50 [2] [µM] | EC50 [1, 4] [µM]
CC[C@@H](NC(=O)N1C(=O)C[C@@H]1CN(C)Cc1ccccc1)c1ccccc1 [Entry 137] | 9.9 | > 147 | > 147 | –
CC[C@@H](NC(=O)N1C(=O)C[C@@H]1COc1ccccc1)c1ccccc1 [Entry 130] | 5.2 | 101 | > 250 | –
CC[C@@H](NC(=O)N1C(=O)[C@@H](C)[C@@H]1CSc1ccncc1)c1ccccc1 [Entry 118] | 1.6 | 55 | 199 | –
C[C@@H](NC(=O)N1C(=O)C[C@@H]1CSc1ccccc1)c1ccccc1 [Entry 212] | 4.4 | 31 | > 52 | –
CC[C@@H](NC(=O)N1C(=O)[C@@H](C)[C@@H]1CSc1ccccn1)c1ccccc1 [Entry 108] | 1.2 | 180 | > 250 | –
CC[C@@H](NC(=O)N1C(=O)C[C@@H]1COC(=O)c1cccc2ccccc12)c1ccccc1 [Entry 134] | 0.46 | – | > 13 | 9
CC[C@@H](NC(=O)N1C(=O)[C@@H](C)[C@@H]1CSCC(C)C)c1ccccc1 [Entry 117] | 3.5 | 110 | > 250 | –
CC[C@@H](NC(=O)N1C(=O)[C@@H](C)[C@@H]1CSc1nc2ncccc2s1)c1ccccc1 [Entry 125] | 1.1 | 140 | > 250 | –
O=C1C[C@H](CSc2ccccc2)N1C(=O)NCc1ccncc1 [Entry 201, 2-oxo-4(R)-(phenylsulfanylmethyl) azetidine-1-carboxylic acid (pyridin-4-ylmethyl)amide] | 7.9 | 75 | > 270 | –
CC[C@@H](NC(=O)N1C(=O)C[C@@H]1[C@@H](C)Sc1ncccn1)c1ccccc1 [Entry 209, 2-oxo-4(R)-[1(R)-(pyrimidin-2-ylsulfanyl)ethyl]azetidine-1-carboxylic acid (1(R)-phenylpropyl)amide] | 3.4 | 80 | > 168 | –
COC(=O)c1ccc(CN(C)C(=O)N2C(=O)C[C@@H]2CSc2ncccn2)cc1 [Entry 302] | 3.9 | 170 | > 250 | –
O=C1C[C@H](CSc2ncccn2)N1C(=O)N1CCC[C@@H]1c1ccccc1 [Entry 403, 1-(2(R)-phenyl-pyrrolidine-1-carbonyl)-4-(pyrimidin-2-ylsulfanylmethyl)azetidin-2-one] | 14 | 95 | > 250 | –
CN(Cc1ccc(F)cc1)C(=O)N1C(=O)C[C@@H]1CSc1ncccn1 [Entry 313] | 8.3 | 110 | > 250 | –
CC[C@@H](NC(=O)N1C(=O)C[C@@H]1CSc1nc2ncccc2s1)c1ccccc1 [Entry 139] | 0.8 | – | > 53 | > 53
CN(Cc1ccc(C(F)(F)F)cc1)C(=O)N1C(=O)C[C@@H]1CSc1nnnn1C [Entry 320] | 0.47 | 69 | > 250 | –

Reference: patent US6211170A, “Azetidinone derivatives for the treatment of HCMV infections” (Boehringer Ingelheim (Canada) Ltd., priority 1998, dated 2001)
